From article PMC6768771 (Current cancer drug targets, 2019)

Experiments:
Test in all cases: Cell viability assay
Type in all cases: cell-based
NCI-H1573 cells = conditions: Homo sapiens, NCI-H1573, 48 h, read-out: EC50 at 48 h
A549 cells = conditions: Homo sapiens, A549, 48 h, read-out: EC50 at 48 h
NCI-H1299 cells = conditions: Homo sapiens, NCI-H1299, 48 h, read-out: EC50 at 48 h
NCI-H661 cells = conditions: Homo sapiens, NCI-H661, 48 h, read-out: EC50 at 48 h
NCI-H460 cells = conditions: Homo sapiens, NCI-H460, 48 h, read-out: EC50 at 48 h
NCI-H1563 cells = conditions: Homo sapiens, NCI-H1563, 48 h, read-out: EC50 at 48 h

EC50 (NCI-H1573 cells) [µM] | EC50 (A549 cells) [µM] | EC50 (NCI-H1299 cells) [µM] | EC50 (NCI-H661 cells) [µM] | EC50 (NCI-H460 cells) [µM] | EC50 (NCI-H1563 cells) [µM] | SMILES
> 200 | > 200 | 72 | > 200 | 56 | 80 | CC(=O)O[C@@]12CO[C@@H]1C[C@H](O)[C@@]1(C)C(=O)[C@H](O)C3=C(C)[C@@H](OC(=O)[C@H](O)[C@@H](NC(=O)OC(C)(C)C)c4ccccc4)C[C@@](O)([C@@H](OC(=O)c4ccccc4)[C@H]21)C3(C)C [Docetaxel]
> 200 | > 200 | > 200 | > 200 | > 200 | > 200 | C#Cc1cccc(Nc2ncnc3cc(OCCOC)c(OCCOC)cc23)c1 [Erlotinib]
> 200 | > 200 | 60 | 11 | 26 | > 200 | CC(=O)O[C@H]1C(=O)[C@@]2(C)[C@H]([C@H](OC(=O)c3ccccc3)[C@]3(O)C[C@H](OC(=O)[C@H](O)[C@@H](NC(=O)c4ccccc4)c4ccccc4)C(C)=C1C3(C)C)[C@]1(OC(C)=O)CO[C@@H]1C[C@@H]2O [Paclitaxel]
